Source: patent publication US20220313670A1, “Methods Of Treating Fabry Disease In Patients Having Renal Impairment” (Amicus Therapeutics, Inc., priority 2019, published 2022)
Like-named read-outs stand apart in the source and are kept apart here.

How the values were obtained:
[1] = FACETS (011) population PK from sparse blood sampling in Fabry patients; type: in vivo, human; details: for Comparison to FACETS PPK (migalastat concentration): Fabry patients of FACETS
Source text: One or more of the dosing regimens described herein are particularly suitable for Fabry patients who have some degree of renal impairment. […] FACETS (011, NCT00925301) was a 24-month trial, including a 6-month double-blind, placebo-controlled period, in 67 enzyme replacement therapy (ERT)-naive patients. ATTRACT (012, NCT01218659) was an active-controlled, 18-month trial in 57 ERT-experienced patients with a 12-month open-label extension (OLE). Both the FACETS and ATTRACT studies included patients having an estimated glomerular filtration rate (eGFR) of ≥30 ml/min/1.73 m^2. Accordingly, both studies included Fabry patients with normal renal function as well as patients with mild and moderate renal impairment, but neither study included patients with severe renal impairment.
Thus, two Fabry patients with renal impairment were evaluated. One patient (P1) had moderate renal impairment, while the other patient (P2) had severe renal impairment. […] The comparison with the results from the FACETS study allows for comparison of PK in the Fabry population with mostly normal, but some mild and a few moderately impaired Fabry patients. None had severe renal impairment because these patients were excluded from the study.

[2] = Pharmacokinetics of migalastat HCl in a Fabry patient with severe renal impairment (P3, 2004-5029; Example 6); type: in vivo, human
Protocol: Migalastat levels can be measured via methods known in the art. […] Microcentrifuge tubes containing 100 μl of the tissue homogenate or 50 μl of plasma may then be spiked with 500 ng/mL 13C d2-AT1001 HCl internal standard (manufactured by MDS Pharma Services). A 600 μl volume of 5 mM HCl in 95/5 MeOH:H2O can then be added and the tubes vortexed for 2 minutes, followed by centrifugation at 21000×g for 10 minutes at room temperature. The supernatants may then be collected into a clean, 96-well plate, diluted with 5 mM HCl in dH2O and applied to a 96-well solid phase extraction (SPE) plate (Waters Corp., Milford Mass.). […] The liquid chromatography can be conducted using an ACN:water:formate binary mobile phase system (mobile phase A: 5 mM ammonium formate, 0.5% formic acid in 95:5 ACN:water; mobile phase B: 5 mM ammonium formate, 0.5% formic acid in 5:47.5:47.5 ACN:MeOH:water) with a flow rate of 0.7 mL/minute on an Halo HILIC column (150×4.6 mm, 2.7 μm) (Advanced Materials Technology, Inc.). MS/MS analysis may be carried out under APCi positive ion mode. The same procedure may be followed for migalastat determination in plasma except without homogenization. […] A 12-point calibration curve and quality control samples may be prepared. […] To derive approximate molar concentrations, one gram of tissue may be estimated as one mL of volume.
PK data was collected every three months.

[3] = Severe RI Fabry patient 2004-5029 (P3), CLcr 21, 5/17, Q4D regimen
[4] = human, plasma, Severe RI Fabry patient 2004-5029 (P3), CLcr 21, 5/17, Q4D regimen

## OC[C@H]1NC[C@H](O)[C@@H](O)[C@H]1O [migalastat, (2R,3S,4R,55)-2-(hydroxymethyl) piperdine-3,4,5-triol]
[1]; 3 Hrs Post, (coefficient of variation)
  Comparison to FACETS PPK (migalastat concentration): 1180 (31.0%)
[1]; 48 Hrs Post
  Comparison to FACETS PPK (migalastat concentration): 8.70
[1]; 48 h
  Comparison to FACETS PPK (migalastat concentration): 8.70
[1]; Pre-dose (0 h)
  Comparison to FACETS PPK (migalastat concentration): 8.70
[1]; human, plasma, 150 mg, FACETS population PK, 150 mg QOD, read-out: PPK Cmin
  concentration at 48 h: 0.0087 µg/mL
[1]; human, plasma, 150 mg, 011 PPK (CLcr ≥30-≥90 mL/min), N 62, QOD regimen, read-out: AUC0-t, Geometric mean
  AUC(0-t): 9.03 µg·h/mL
[1]; human, plasma, 150 mg, 011 PPK (CLcr ≥30-≥90 mL/min), N 62, QOD regimen, read-out: C48 h, Mean
  concentration at 48 h: 0.00754 µg/mL
[1]; human, plasma, 150 mg, 011 PPK (CLcr ≥30-≥90 mL/min), N 62, QOD regimen, read-out: Cmax, Geometric mean (CV %)
  Cmax: 1.18 µg/mL
[1]; human, plasma, 150 mg, 011 PPK (CLcr ≥30-≥90 mL/min), N 62, QOD regimen, read-out: t1/2, Mean (converted)
  half-life: 20.6 h
[1]; human, plasma, 150 mg, reference AUC of the 011 PK model, the same value printed on every subject line
  AUC: 9.52 µg·h/mL
[2]; Fabry patient P3, May ′17 (Q4D), 0 h
  Plasma Migalastat Conc: BLQ
[2]; [3]
  CL/F: 4.67 L/h
  Frel: 2.6
[2]; human, plasma, Plasma Migalastat Conc, Fabry patient P3, Aug ′15, 0 h
  concentration at 0 h: 0.0364 µg/mL
[2]; human, plasma, Plasma Migalastat Conc, Fabry patient P3, Aug ′15, 3 h
  concentration at 3 h: 2.16 µg/mL
[2]; human, plasma, Plasma Migalastat Conc, Fabry patient P3, Aug ′15, 24 h
  concentration at 24 h: 0.211 µg/mL
[2]; human, plasma, Plasma Migalastat Conc, Fabry patient P3, Aug ′15, 48 h
  concentration at 48 h: 0.0624 µg/mL
[2]; human, plasma, Plasma Migalastat Conc, Fabry patient P3, Aug ′17 (Q4D), 48 h
  concentration at 48 h: 0.13 µg/mL
[2]; human, plasma, Plasma Migalastat Conc, Fabry patient P3, Aug ′17 (Q4D), 96 h
  concentration at 96 h: 0.0613 µg/mL
[2]; human, plasma, Plasma Migalastat Conc, Fabry patient P3, Feb ′15, 0 h
  concentration at 0 h: 0.0199 µg/mL
[2]; human, plasma, Plasma Migalastat Conc, Fabry patient P3, Feb ′15, 3 h
  concentration at 3 h: 1.62 µg/mL
[2]; human, plasma, Plasma Migalastat Conc, Fabry patient P3, Feb ′15, 24 h
  concentration at 24 h: 0.168 µg/mL
[2]; human, plasma, Plasma Migalastat Conc, Fabry patient P3, Feb ′15, 48 h
  concentration at 48 h: 0.0418 µg/mL
[2]; human, plasma, Plasma Migalastat Conc, Fabry patient P3, Mar ′11, 0 h
  concentration at 0 h: 0.0381 µg/mL
[2]; human, plasma, Plasma Migalastat Conc, Fabry patient P3, Mar ′11, 3 h
  concentration at 3 h: 1.56 µg/mL
[2]; human, plasma, Plasma Migalastat Conc, Fabry patient P3, Mar ′11, 4 h
  concentration at 4 h: 1.57 µg/mL
[2]; human, plasma, Plasma Migalastat Conc, Fabry patient P3, Mar ′11, 8 h
  concentration at 8 h: 0.802 µg/mL
[2]; human, plasma, Plasma Migalastat Conc, Fabry patient P3, May ′17 (Q4D), 3 h
  concentration at 3 h: 2.11 µg/mL
[2]; human, plasma, Plasma Migalastat Conc, Fabry patient P3, May ′17 (Q4D), 4 h
  concentration at 4 h: 1.97 µg/mL
[2]; human, plasma, Plasma Migalastat Conc, Fabry patient P3, May ′17 (Q4D), 8 h
  concentration at 8 h: 1.38 µg/mL
[2]; human, plasma, Plasma Migalastat Conc, Fabry patient P3, May ′17 (Q4D), 24 h
  concentration at 24 h: 0.358 µg/mL
[2]; human, plasma, Plasma Migalastat Conc, Fabry patient P3, May ′17 (Q4D), 48 h
  concentration at 48 h: 0.0774 µg/mL
[2]; human, plasma, Plasma Migalastat Conc, Fabry patient P3, May ′17 (Q4D), 96 h
  concentration at 96 h: 0.0184 µg/mL
[2]; human, plasma, Plasma Migalastat Conc, Fabry patient P3, Nov ′17 (Q4D), 48 h
  concentration at 48 h: 0.401 µg/mL
[2]; human, plasma, Plasma Migalastat Conc, Fabry patient P3, Nov ′17 (Q4D), 96 h
  concentration at 96 h: 0.0862 µg/mL
[2]; human, plasma, Severe RI Fabry patient 2004-5029 (P3), CLcr 15, 11/17, Q4D regimen, read-out: C48 h
  concentration at 48 h: 0.401 µg/mL
[2]; human, plasma, Severe RI Fabry patient 2004-5029 (P3), CLcr 15, 11/17, Q4D regimen, read-out: C96 h
  concentration at 96 h: 0.0862 µg/mL
[2]; human, plasma, Severe RI Fabry patient 2004-5029 (P3), CLcr 19, 8/17, Q4D regimen, read-out: C48 h
  concentration at 48 h: 0.13 µg/mL
[2]; human, plasma, Severe RI Fabry patient 2004-5029 (P3), CLcr 19, 8/17, Q4D regimen, read-out: C96 h
  concentration at 96 h: 0.0613 µg/mL
[2]; [4]
  AUC(0-inf): 32.1 µg·h/mL
  AUC(0-t): 31.9 µg·h/mL
  Cmax: 2.25 µg/mL
  half-life: 13.2 h
  tmax: 2 h
[2]; human, plasma, Severe RI Fabry patient 2004-5029 (P3), CLcr 21, 5/17, Q4D regimen, read-out: C48 h
  concentration at 48 h: 0.0774 µg/mL
[2]; human, plasma, Severe RI Fabry patient 2004-5029 (P3), CLcr 21, 5/17, Q4D regimen, read-out: C96 h
  concentration at 96 h: 0.0184 µg/mL
